# US20220257559A1, “INTESTINAL MICROBIOME-IMPROVING COMPOSITION INCLUDING ELLAGIC ACID AS ACTIVE INGREDIENT” (Andong National University Industry-Academic Cooperation …, priority 2021, published 2022)
# Legend:
# Assay type in all cases: in vivo
# [1] = system: cecal microbiota; assay: cecal microbiota 16S sequencing, alcohol exposure and EA pretreatment in mice
# Description: All animal testing procedures were performed in accordance with Andong National University's small animal testing guidelines, and were approved by the Andong National University Animal Care and Use Committee. All mice were housed where food and water were provided autonomously, and lighting was controlled (12-hour light/dark cycle). The ellagic acid was orally administered to 6-week-old female C57BL/6J mice at a daily dose of 60 mg/Kg as a physiologically and clinically relevant dose, and 200 mg/Kg silymarin was administered as a positive control. Water was orally administered to control mice. After the administration of ellagic acid for 14 days, alcohol or dextrose (control) was orally administered to some of the mice at a dose of 5 g/Kg, three times at 12-hour intervals. The mice were […] 1 hour after the last administration. Fecal samples were aseptically collected from the cecum of each mouse and frozen at -80° C. DNA was extracted using the Mag-Bind Universal Pathogen DNA Kit (Chunlab, Seoul, South Korea) according to the manufacturer's instructions. DNA sequencing of bacterial 16S rRNA in each fecal sample was performed at Chunlab (https://www.chunlab.com/). Intestinal microbiome and bacterial products have been associated with liver diseases (ALD). To evaluate the effect of ellagic acid (EA) on the intestinal microbial distribution in an alcoholic liver disease model, the cecal microbiota according to alcohol exposure and EA pretreatment in mice was evaluated according to the experimental design of FIG. 1. […] However, in the case of the alcohol exposure group, Verrucomicrobia phylum increased whereas Firmicutes phylum decreased.
# [2] = system: plasma endotoxin; assay: plasma endotoxin level (LAL chromogenic kit) in alcohol-exposed mice; settings: EA-pretreated group vs alcohol-exposed group; EA 60 mg/Kg daily oral 14 days; FIG. 7
# Description: (§1) All animal testing procedures were performed in accordance with Andong National University's small animal testing guidelines, and were approved by the Andong National University Animal Care and Use Committee. All mice were housed where food and water were provided autonomously, and lighting was controlled (12-hour light/dark cycle). The ellagic acid was orally administered to 6-week-old female C57BL/6J mice at a daily dose of 60 mg/Kg as a physiologically and clinically relevant dose, and 200 mg/Kg silymarin was administered as a positive control. Water was orally administered to control mice. After the administration of ellagic acid for 14 days, alcohol or dextrose (control) was orally administered to some of the mice at a dose of 5 g/Kg, three times at 12-hour intervals. The mice were sacrificied 1 hour after the last administration.
# Plasma endotoxin levels were measured using a commercial endpoint LAL Chromogenic Endotoxin Quantitation Kit manufactured by Thermo Fisher Scientific (Waltham, Mass.) and having a concentration range of 0.015 to 1.2 EU/mL.
# (§2) Intestinal microbial products can be stimulated by intestinal leak and endotoxins. Plasma endotoxin and intestinal TNF-α levels were measured to determine whether ellagic acid (EA)-mediated prophylaxis occurred at altered levels of microbial composition.
# [3] = system: TNF-α; assay: intestinal TNF-α level (ELISA) in alcohol-exposed mice; settings: EA pretreatment vs alcohol-exposed group; EA 60 mg/Kg daily oral 14 days; FIG. 8
# Description: as §1
# Liver solutions were analyzed using an ELISA kit for TNF-α, manufactured by Abcam (Cambridge, United Kingdom), according to the manufacturer's instructions. To use equal amounts of protein for the ELISA, protein concentration was measured with BCA reagent manufactured by BioRad (Hercules, Calif.). […]
# as §2
# [4] = system: CYP2E1, iNOS, and 3-NT proteins in the intestine; assay: intestinal oxidative stress marker proteins (immunoblot) in alcohol-exposed mice; settings: EA-pretreated group vs alcohol-exposed group; FIG. 9
# Description: Portions of liver tissue and small intestine from each mouse were homogenized with RIPA buffer. Equally pooled protein in an amount of 50 ug collected from different mouse samples within the same group were separated by SDS/PAGE and transferred to nitrocellulose membranes. These membranes were incubated with polyclonal antibodies against CYP2E1 (1:5,000 dilution; Abcam), p-JNK (1:1,000 dilution; Cell Signaling), 3-NT (1:5,000 dilution; Abcam), iNOS (1:5,000 dilution; Abcam), cleaved caspase-3 (1:1,000 dilution; Cell Signaling), ZO-1 (1:5,000 dilution; Abcam), and claudin-1 (1:1,000 dilution; Thermo Fisher). Each mouse monoclonal antibody against JNK (1:1,000 dilution; Cell Signaling), Bax (1:1,000 dilution; Santa Cruz Biotechnology), or +-actin (1:10,000 dilution; Santa Cruz Biotechnology) was used to detect specific antigenic targets. […] Relative protein images were determined using the HRP-binding secondary antibody and an ECL substrate (Thermo Fishers). The intensity of immune response bands was quantified by density using ImageJ software (National Institutes of Health).
# To evaluate the effect of ellagic acid on intestinal oxidative stress, the expression levels of CYP2E1, iNOS, and 3-NT proteins were measured.
# [5] = system: ZO-1 and β-catenin; assay: intestinal tight junction (TJ) and anchoring junction (AJ) protein expression in alcohol-exposed mice; settings: EA-pretreated group within the alcohol-exposed group; FIG. 10
# Description: as §1, with “After the administration of ellagic acid for 14 days, alcohol or dextrose (control) was orally administered to some of the mice at a dose of 5 g/Kg, three times at 12-hour intervals. The mice were sacrificied 1 hour after the last administration.” left out
# Portions of liver tissue and small intestine from each mouse were homogenized with RIPA buffer. […] Relative protein images were determined using the HRP-binding secondary antibody and an ECL substrate (Thermo Fishers). The intensity of immune response bands was quantified by density using ImageJ software (National Institutes of Health).
# (§3) Changes in the expression of intestinal tight junction (TJ) and anchoring junction (AJ) proteins are observed in mouse models with alcohol-induced intestinal leak. To evaluate whether ellagic acid (EA) prevents alcohol-induced intestinal leakage, the expression levels of intestinal TJ and AJ proteins after the ellagic acid administration were measured.
# [6] = system: intestinal cells; assay: apoptosis of intestinal cells in alcohol-exposed mice; settings: EA pretreatment group, alcohol-induced; FIG. 11
# Description: as §1
# Small intestine and liver specimens were fixed overnight in 10% buffered formalin and embedded in paraffin. […]
# as §3
# [7] = system: fat accumulation in the liver; assay: liver histology (H/E and Oil Red O staining) in alcohol-exposed mice; settings: EA-pretreated group vs alcohol-exposed group, FIGS. 12 and 13
# Description: as §1
# (§4) Portions of the largest liver lobes or small intestines from the mice pretreated with ellagic acid and from the controls were fixed in neutral formalin. […] Plasma ALT levels of each mouse were measured using a standard endpoint colorimetric assay kit (Bio Vision, Milpitas, Calif.).
# (§5) To evaluate the effect of ellagic acid (EA) on hepatic fat accumulation, and plasma ALT and hepatic triglyceride levels, liver tissues taken from mouse models were histologically analyzed through H/E staining and Oil Red O staining.
# [8] = system: hepatic triglyceride (TG); assay: hepatic triglyceride (TG) level in alcohol-exposed mice; settings: EA-pretreated group vs alcohol-exposed group; FIG. 14
# Description: as §1
# The level of triglyceride (TG) in the liver was measured using a commercially available kit manufactured by Asan Co., Ltd. (Gimpo, South Korea).
# as §5
# [9] = system: plasma ALT; assay: plasma ALT level in alcohol-exposed mice; settings: EA-pretreated group vs alcohol-exposed group; FIG. 15
# Description: as §1, §4, §5
# [10] = blood alcohol concentration (BAC) in alcohol-exposed mice; settings: EA-pretreated group; FIG. 16
# Description: as §1
# (§6) Levels of plasma ROS were visualized with 2′,7′-dichlorofluorescein diacetate (DCFH-DA) purchased from Thermo Fisher Scientific. After the DCFH-DA was incubated at 37° C. for 20 minutes, DCFH-DA fluorescence was measured. Plasma alcohol levels were measured using a commercially available kit manufactured by BioVision.
# as §5
# [11] = system: CYP2E1, iNOS and 3-NT proteins in the liver; assay: hepatic CYP2E1 expression and activity and oxidative stress marker proteins in alcohol-exposed mice
# Description: CYP2E1 Activity Analysis Liver solutions were each analyzed with an ELISA kit for CYP2E1, manufactured by Claud-clone corporation (Houston, Tex.), according to the manufacturer's instructions.
# Portions of liver tissue and small intestine from each mouse were homogenized with RIPA buffer. Equally pooled protein in an amount of 50 ug collected from different mouse samples within the same group were separated by SDS/PAGE and transferred to nitrocellulose membranes. These membranes were incubated with polyclonal antibodies against CYP2E1 (1:5,000 dilution; Abcam), p-JNK (1:1,000 dilution; Cell Signaling), 3-NT (1:5,000 dilution; Abcam), iNOS (1:5,000 dilution; Abcam), cleaved caspase-3 (1:1,000 dilution; Cell Signaling), ZO-1 (1:5,000 dilution; Abcam), and claudin-1 (1:1,000 dilution; Thermo Fisher). Each mouse monoclonal antibody against JNK (1:1,000 dilution; Cell Signaling), Bax (1:1,000 dilution; Santa Cruz Biotechnology), or +-actin (1:10,000 dilution; Santa Cruz Biotechnology) was used to detect specific antigenic targets. After washing the nitrocellulose membranes three times with PBS at 10-minute intervals, horseradish peroxidase (HRP)-conjugated anti-rabbit or anti-mouse IgG (manufactured by Santa Cruz Biotechnology) was diluted at a ratio of 1:5,000 and used as a secondary antibody. Relative protein images were determined using the HRP-binding secondary antibody and an ECL substrate (Thermo Fishers). The intensity of immune response bands was quantified by density using ImageJ software (National Institutes of Health).
# To evaluate the effect of ellagic acid (EA) on hepatic oxidative stress, the expression and activity levels of CYP2E1 proteins were measured.
# [12] = system: plasma ROS; assay: plasma ROS level (DCFH-DA) in alcohol-exposed mice; settings: FIG. 18
# Description: as §1, §6
# CYP2E1 generates reactive oxygen species (ROS) in alcoholic and nonalcoholic liver disease.
# [13] = system: p-JNK, Bax, cleaved caspase-3 in the liver; assay: liver apoptosis markers (Western blot, cleaved caspase-3 staining, TUNEL) in alcohol-exposed mice
# Description: as §1
# Portions of liver tissue and small intestine from each mouse were homogenized with RIPA buffer. Equally pooled protein in an amount of 50 ug collected from different mouse samples within the same group were separated by SDS/PAGE and transferred to nitrocellulose membranes. These membranes were incubated with polyclonal antibodies against CYP2E1 (1:5,000 dilution; Abcam), p-JNK (1:1,000 dilution; Cell Signaling), 3-NT (1:5,000 dilution; Abcam), iNOS (1:5,000 dilution; Abcam), cleaved caspase-3 (1:1,000 dilution; Cell Signaling), ZO-1 (1:5,000 dilution; Abcam), and claudin-1 (1:1,000 dilution; Thermo Fisher). Each mouse monoclonal antibody against JNK (1:1,000 dilution; Cell Signaling), Bax (1:1,000 dilution; Santa Cruz Biotechnology), or […] (1:10,000 dilution; Santa Cruz Biotechnology) was used to detect specific antigenic targets. […] Relative protein images were determined using the HRP-binding secondary antibody and an ECL substrate (Thermo Fishers). The intensity of immune response bands was quantified by density using ImageJ software (National Institutes of Health). […]
# [14] = summary statement, alcohol intake
# [15] = EA-pretreated group vs alcohol-exposed group, FIGS. 17 and 19
# [16] = EA-pretreated group vs alcohol-exposed mice, FIG. 19
# [17] = EA-pretreated group vs alcohol-exposed group, Western blot, FIG. 20
structure (smiles),measurement,setting,value
O=c1oc2c(O)c(O)cc3c(=O)oc4c(O)c(O)cc1c4c23 [ellagic acid],gene of the genus Bacteroides,"[1]; EA-pretreated mice vs alcohol-exposed group, EA 60 mg/Kg daily oral 14 days, alcohol 5 g/Kg three times, FIG. 4",decreased
same,gene level of E. coli,"[1]; EA-pretreated mice vs alcohol-exposed group, EA 60 mg/Kg daily oral 14 days, alcohol 5 g/Kg three times, FIG. 5",decreased to a level similar to that of the control group
same,change in intestinal microbial distribution at the phylum level,"[1]; control group and EA pretreatment group, EA 60 mg/Kg daily oral 14 days, female C57BL/6J mice, FIGS. 2 and 3",no significant change
same,growth of Bacteroidetes (harmful bacteria) attributable to alcohol intake,[1]; [14],inhibits the growth
same,growth of Firmicutes (beneficial bacteria),[1]; [14],increases the growth
same,growth of Verrucomicrobia (harmful bacteria) attributable to alcohol intake,[1]; [14],inhibits the growth
same,alcohol-induced increase in plasma endotoxin concentration,[2],suppressed
same,alcohol-induced increase in intestinal TNF-α level,[3],suppressed
same,level of 3-NT proteins in the intestine,[4],decreased
same,level of CYP2E1 protein in the intestine,[4],decreased
same,level of iNOS protein in the intestine,[4],decreased
same,level of intestinal ZO-1,[5],recovery
same,level of intestinal β-catenin,[5],recovery
same,apoptosis of intestinal cells,[6],decrease
same,fat accumulation in the liver,[7],decreased
same,hepatic triglyceride (TG) level,[8],decreased
same,plasma ALT level,[9],decreased
same,increase in blood alcohol concentration (BAC) caused by alcohol intake,[10],suppressed
same,activity level of CYP2E1 proteins in the liver,[11]; [15],decreased
same,expression level of CYP2E1 proteins in the liver,[11]; [15],decreased
same,hepatic 3-NT proteins,[11]; [16],decreased
same,hepatic inducible nitric oxide synthase (iNOS) protein,[11]; [16],decreased
same,increase in the level of plasma ROS attributable to alcohol intake,[12],suppressed
same,Bax (apoptosis marker protein) in the liver,[13]; [17],decreased
same,p-JNK (apoptosis marker protein) in the liver,[13]; [17],decreased
same,apoptosis marker proteins by cleaved caspase-3 staining and TUNEL analysis in the liver,"[13]; EA-pretreated group vs mice exposed to alcohol, FIGS. 21 and 22",decreased
